Data on 15 compounds can be found in US9637495B2, “CGRP receptor antagonists” (Eli Lilly and Company, priority 2015, dated 2017).

Molecules are shown by their SMILES.

For the first test, the target named is T1, human CGRP receptor (Homo sapiens, UniProt O60894+Q16602).
T1 construct: SK-N-MC neuroblastoma cells (ATCC® HTB-10™) that endogenously express the hCGRP receptor; host or cells: SK-N-MC neuroblastoma cells
T1 sequence (Q16602 23-461): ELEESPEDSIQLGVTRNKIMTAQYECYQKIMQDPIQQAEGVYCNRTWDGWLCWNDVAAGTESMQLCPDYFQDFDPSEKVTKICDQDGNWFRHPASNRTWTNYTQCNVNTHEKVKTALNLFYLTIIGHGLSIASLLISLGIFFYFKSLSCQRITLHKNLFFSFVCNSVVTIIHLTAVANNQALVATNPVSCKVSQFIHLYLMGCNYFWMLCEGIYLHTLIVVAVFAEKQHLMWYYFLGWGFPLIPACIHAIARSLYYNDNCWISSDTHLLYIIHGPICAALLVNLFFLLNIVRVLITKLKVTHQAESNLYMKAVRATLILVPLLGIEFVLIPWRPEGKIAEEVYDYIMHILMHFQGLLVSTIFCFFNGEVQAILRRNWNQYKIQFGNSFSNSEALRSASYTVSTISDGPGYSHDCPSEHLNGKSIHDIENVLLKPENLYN
T1 sequence (O60894 27-148): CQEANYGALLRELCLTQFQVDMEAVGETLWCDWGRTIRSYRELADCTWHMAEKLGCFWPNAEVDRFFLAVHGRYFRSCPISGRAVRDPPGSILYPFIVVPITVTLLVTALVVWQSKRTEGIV
As to the kind of experiment: Inhibition of cAMP production by CGRP receptor antagonists in SK-N-MC cells (HTRF). Type of test: cell-based. Conditions: SK-N-MC neuroblastoma cells, human CGRP 0.8 nM as agonist, Kb estimated as agonist-corrected IC50, mean ± SEM; read-out: Kb hCGRP. The source says:
Inhibition of cAMP Production by CGRP Receptor Antagonists
The hCGRP (human calcitonin gene-related peptide) receptor is functionally coupled to the Gαs proteins. Stimulation of hCGRP results in an increased synthesis of intracellular cAMP and can be blocked by the addition of receptor antagonists. Receptor activity is thus a reflection of the amount of cAMP present within cells which can be detected using standard in vitro technology.
Cultured SK-N-MC neuroblastoma cells (ATCC® HTB-10™) that endogenously express the hCGRP receptor are grown in Eagle's Minimum essential medium (HYCLONE™) supplemented with 10% heat-inactivated Fetal bovine serum (FBS; GIBCO®), Non-Essential Amino Acids (GIBCO®), 1 mM sodium pyruvate, 2 mM L-glutamine, 100 U/mL of penicillin, and 10 μg/mL of streptomycin to about 70% confluency. After providing fresh medium, the cells are incubated at 37° C. overnight. On the day of the assay, cells are detached using ACCUTASE® (MP Biomedicals), resuspended in assay buffer [Hank's Balanced Salt Solution/Dulbecco's phosphate-buffered saline with […] each of CaCl2 and MgCl2 mixed 1:2, 3.3 mM 4-(2-hydroxyethyl)-1-piperazineethanesulfonic acid, 0.03% bovine serum albumin, and 0.5 mM 1-methyl-3-isobutylxanthine (as inhibitor of […])], and seeded 3-5K/well into 384-well, poly-D-lysine coated white plates (BD Biosciences).
For dose-response studies, compounds are serially diluted 1:3 in dimethyl sulfoxide and then 1:10 into assay buffer. Human CGRP (0.8 nM; Bachem) as a receptor-specific agonist for the hCGRP receptor is mixed with diluted compound and added to the cells as the challenge stimulant at their EC80 concentrations.
The amount of intracellular cAMP is quantitated using HTRF technology (Cisbio) as per vendor instructions. Briefly, cAMP-d2 conjugate and anti-cAMP-cryptate conjugate in lysis buffer are incubated with the treated cells at room temperature for 90 min. The HTRF signal is immediately detected using an ENVISION® plate reader (Perkin-Elmer) to calculate the ratio of fluorescence at […]. The raw data are converted to cAMP amount (pmole/well) using a cAMP standard curve generated for each experiment. Relative EC50 values are calculated from the top-bottom range of the concentration response curve using a four-parameter logistic curve fitting program (ACTIVITYBASE® v5.3.1.22 or GENEDATA SCREENER® v12.0.4), and Kb values are estimated as agonist-corrected IC50 values using the equation: Kb=(IC50)/[1+([Agonist]/EC50)]. Estimated Kb values are reported as mean values±SEM, averaged from the number of runs (n).
In general, Kb refers to the equilibrium dissociation constant of an antagonist, usually derived from a functional assay. In the case of `Cc1cc(CNC(=O)c2ccc([C@@H](C)[C@@]3(C)C(=O)Nc4ncccc43)cn2)cc(C)n1` [Example 1, N-[(2,6-dimethylpyridin-4-yl)methyl]-5-{(1R)-1-[(3R)-3-methyl-2-oxo-2,3-dihydro-1H-pyrrolo[2,3-b]pyridin-3-yl]ethyl}pyridine-2-carboxamide], the antagonist dissociation constant (Kb) was 0.0465 ± 0.0097 nM.
As to `Cc1cc(CNC(=O)c2ccc([C@@H](C)[C@@]3(C)C(=O)Nc4ncccc43)cc2)cc(C)n1` [Example 2, N-[(2,6-dimethyl-4-pyridyl)methyl]-4-[(1R)-1-[(3R)-3-methyl-2-oxo-1H-pyrrolo[2,3-b]pyridin-3-yl]ethyl]benzamide], the Kb is 0.0366 ± 0.0154 nM.
On to `CCc1cc(CNC(=O)c2ccc([C@@H](C)[C@@]3(C)C(=O)Nc4ncccc43)cc2)cc(C)n1` [Example 3, N-[(2-ethyl-6-methylpyridin-4-yl)methyl]-4-{(1R)-1-[(3R)-3-methyl-2-oxo-2,3-dihydro-1H-pyrrolo[2,3-b]pyridin-3-yl]ethyl}benzamide], for which the antagonist dissociation constant (Kb) is 0.0173 nM.
In the case of `Cc1cc(CNC(=O)c2ccc([C@@H](C)[C@@]3(C)C(=O)Nc4ncccc43)cc2)cc(C2CC2)n1` [Example 4, N-[(2-cyclopropyl-6-methyl-4-pyridyl)methyl]-4-[(1R)-1-[(3R)-3-methyl-2-oxo-1H-pyrrolo[2,3-b]pyridin-3-yl]ethyl]benzamide], the Kb was 0.0266 nM.
As for `Cc1cc(CNC(=O)c2ccc([C@@H](C)[C@@]3(C)C(=O)Nc4ncccc43)cc2)cc(C2CCC2)n1` [Example 5, N-[(2-cyclobutyl-6-methylpyridin-4-yl)methyl]-4-{(1R)-1-[(3R)-3-methyl-2-oxo-2,3-dihydro-1H-pyrrolo[2,3-b]pyridin-3-yl]ethyl}benzamide], the Kb is 0.00696 nM.
On the same count and under the same terms, the result for `Cc1cc(CNC(=O)c2ccc([C@@H](C)[C@@]3(C)C(=O)Nc4ncccc43)cc2)cc(C2CCCC2)n1` [Example 6, N-[(2-cyclopentyl-6-methylpyridin-4-yl)methyl]-4-{(1R)-1-[(3R)-3-methyl-2-oxo-2,3-dihydro-1H-pyrrolo[2,3-b]pyridin-3-yl]ethyl}benzamide] reads 0.0182 nM; that for `Cc1cc(C)nc(CNC(=O)c2ccc([C@@H](C)[C@@]3(C)C(=O)Nc4ncncc43)cc2)c1` [Example 7, N-[(4,6-dimethylpyridin-2-yl)methyl]-4-{(1R)-1-[(5R)-5-methyl-6-oxo-6,7-dihydro-5H-pyrrolo[2,3-d]pyrimidin-5-yl]ethyl}benzamide], 0.0977 ± 0.00276 nM; that for `Cc1cc(CNC(=O)c2ccc([C@@H](C)[C@@]3(C)C(=O)Nc4ncccc43)cn2)cc(C2CC2)n1` [Example 9, N-[(2-cyclopropyl-6-methylpyridin-4-yl)methyl]-5-{(1R)-1-[(3R)-3-methyl-2-oxo-2,3-dihydro-1H-pyrrolo[2,3-b]pyridin-3-yl]ethyl}pyridine-2-carboxamide], 0.0245 nM.
Turning to `Cc1cc(CNC(=O)c2ccc([C@@H](C)[C@@]3(C)C(=O)Nc4ncncc43)cn2)cc(C)n1` [Example 10, N-[(2,6-dimethyl-4-pyridyl)methyl]-5-[(1R)-1-[(5R)-5-methyl-6-oxo-7H-pyrrolo[2,3-d]pyrimidin-5-yl]ethyl]pyridine-2-carboxamide], the Kb is 0.198 ± 0.0459 nM.
Take `Cc1cc(C#N)nc(CNC(=O)c2ccc([C@@H](C)[C@@]3(C)C(=O)Nc4ncccc43)cc2)c1` [Example 11, N-[(6-cyano-4-methyl-2-pyridyl)methyl]-4-[(1R)-1-[(3R)-3-methyl-2-oxo-1H-pyrrolo[2,3-b]pyridin-3-yl]ethyl]benzamide]: the antagonist equilibrium constant (Kb) was 0.0404 nM.
Consider `Cc1cc(C)nc(CNC(=O)c2ccc([C@@H](C)[C@@]3(C)C(=O)Nc4ncccc43)cc2)c1` [Example 12, N-[(4,6-dimethylpyridin-2-yl)methyl]-4-{(1R)-1-[(3R)-3-methyl-2-oxo-2,3-dihydro-1H-pyrrolo[2,3-]pyridin-3-yl]ethyl}benzamide], for which the antagonist equilibrium constant (Kb) was 0.0428 ± 0.013 nM.
Same read-out and setting: the value for `CCc1cc(CNC(=O)c2ccc([C@@H](C)[C@@]3(C)C(=O)Nc4ncccc43)cn2)cc(C)n1` [Example 13, N-[(2-ethyl-6-methylpyridin-4-yl)methyl]-5-{(1R)-1-[(3R)-3-methyl-2-oxo-2,3-dihydro-1H-pyrrolo[2,3-b]pyridin-3-yl]ethyl}pyridine-2-carboxamide] was 0.0453 ± 0.00153 nM.
For the compound `Cc1cc(CNC(=O)c2ccc([C@@H](C)[C@@]3(C)C(=O)Nc4ncccc43)cc2)cc(C(C)C)n1` [Example 14, 4-{(1R)-1-[(3R)-3-methyl-2-oxo-2,3-dihydro-1H-pyrrolo[2,3-b]pyridin-3-yl]ethyl}-N-{[2-methyl-6-(propan-2-yl)pyridin-4-yl]methyl}benzamide], the antagonist dissociation constant (Kb) was 0.026 nM.
Take `Cc1cc(C)nc(CNC(=O)c2ccc([C@@H](C)[C@@]3(C)C(=O)Nc4ncccc43)cn2)c1` [Example 15, N-[(4,6-dimethylpyridin-2-yl)methyl]-5-{(1R)-1-[(3R)-3-methyl-2-oxo-2,3-dihydro-1H-pyrrolo[2,3-b]pyridin-3-yl]ethyl}pyridine-2-carboxamide]: the Kb was 0.171 ± 0.0339 nM.
`Cc1cc(CNC(=O)c2ccc([C@@H](C)[C@@]3(C)C(=O)Nc4ncccc43)cc2)cc(C#N)n1` [Example 16, N-[(2-cyano-6-methylpyridin-4-yl)methyl]-4-{(1R)-1-[(3R)-3-methyl-2-oxo-2,3-dihydro-1H-pyrrolo[2,3-b]pyridin-3-yl]ethyl}benzamide]: the antagonist dissociation constant (Kb) was 0.813 nM.

For the next test, the system named is CGRP receptor. As to the kind of experiment: Capsaicin-induced dermal blood flow (laser Doppler imaging) in non-human primates. The note with it: 3 mg/kg orally, 90 min prior to capsaicin, cynomolgus NHP, compared to vehicle, p<0.008. Type of test: in vivo. An excerpt: Capsaicin-induced dermal blood flow (DBF) is used as a target engagement biomarker to assess CGRP receptor activity in nonhuman primates (NHPs). Methods are adapted from earlier published procedures [Hershey et al., Regulatory Peptides, Volume 127, Issue 1-3, pp. 71-77, 2005].
Animal studies may be performed under protocols approved by the Covance Institutional Animal Care and Use Committee. Cynomolgus NHPs may be used given the close homology between NHP and human CGRP receptor. The study population may include healthy, CGRP antagonist naive cynomolgus NHP males weighing ˜3-4 kg.
Cynomolgus NHPs are enrolled in the study based on prescreening for capsaicin responsiveness. […] NHPs are used in a cross over design in which all NHPs received all doses after a two week wash-out period. Total n=10 NHPs per group.
NHPs each receive vehicle, 3, 10 and 30 mg/kg of the CGRP receptor antagonist Example 1 administered orally (10% Acacia w/v/0.05% Antifoam 1510-US emulsion v/v/in purified water) 90 min prior to the capsaicin administration in the laser Doppler imaging (LDI) experiment.
Animals are fasted overnight prior to each capsaicin challenge. On the day of the experiment, the NHPs are anesthetized with 1% Isoflurane for approximately 30 min prior to scanning. The NHPs are placed in a quiet, temperature-controlled room supine on a warm small surgical blanket and the shaved arm is placed on a heating pad under the laser head. Three neoprene O-rings (size=8 mm ID) are placed on the NHP forearm, approximately 1 cm apart. During a 30-minute stabilization period, preliminary scans are obtained to confirm correct positioning of the O-rings. […]
LDI repeat scans are analyzed using Moor software v.5.3 (Moor Instruments, Wilmington, Del.) by region of interest signal analysis, and Microsoft Excel worksheets are used for averaging the signal from the regions of interest at a given time point. […] Analyzed data is entered into Graphpad PRISM® 4.0 for graphing and a repeated measurement mixed-effect model in SAS® 9.1 is used for statistical analysis. Data is expressed as mean+/−SEM.
For `Cc1cc(CNC(=O)c2ccc([C@@H](C)[C@@]3(C)C(=O)Nc4ncccc43)cn2)cc(C)n1` [Example 1, N-[(2,6-dimethylpyridin-4-yl)methyl]-5-{(1R)-1-[(3R)-3-methyl-2-oxo-2,3-dihydro-1H-pyrrolo[2,3-b]pyridin-3-yl]ethyl}pyridine-2-carboxamide], the “group mean inhibition of capsaicin-induced dermal blood flow increase” value is given as 32.1%.

The test is the same for the next values; noted with them: 10 mg/kg orally, 90 min prior to capsaicin, cynomolgus NHP, compared to vehicle, p<0.0004.
On to `Cc1cc(CNC(=O)c2ccc([C@@H](C)[C@@]3(C)C(=O)Nc4ncccc43)cn2)cc(C)n1` [Example 1, N-[(2,6-dimethylpyridin-4-yl)methyl]-5-{(1R)-1-[(3R)-3-methyl-2-oxo-2,3-dihydro-1H-pyrrolo[2,3-b]pyridin-3-yl]ethyl}pyridine-2-carboxamide], for which the “group mean inhibition of capsaicin-induced dermal blood flow increase” value was 46.1%.

Staying with this test, now noted: 30 mg/kg orally, 90 min prior to capsaicin, cynomolgus NHP, compared to vehicle, p<0.00002.
As to `Cc1cc(CNC(=O)c2ccc([C@@H](C)[C@@]3(C)C(=O)Nc4ncccc43)cn2)cc(C)n1` [Example 1, N-[(2,6-dimethylpyridin-4-yl)methyl]-5-{(1R)-1-[(3R)-3-methyl-2-oxo-2,3-dihydro-1H-pyrrolo[2,3-b]pyridin-3-yl]ethyl}pyridine-2-carboxamide], the “group mean inhibition of capsaicin-induced dermal blood flow increase” value was 58.8%.
